Measurements as given in ChEMBL document CHEMBL1152511, “Structural basis for alpha-conotoxin potency and selectivity” (Bioorg Med Chem, 2009).
Residues, ends and D or L forms follow the SMILES beside them.

Columns and labels:
Macaca mulatta [1] = organism: Macaca mulatta; test: Binding affinity to monkey alpha-6-alpha-4-beta-2 nAChR
[2] = biological target: Neuronal acetylcholine receptor; alpha3/beta2 (Homo sapiens, UniProt P17787+P32297); test: Inhibition of alpha3beta2 nAChR; format: protein-complex assay
Chain of Neuronal acetylcholine receptor; alpha3/beta2 (P17787 whole entry): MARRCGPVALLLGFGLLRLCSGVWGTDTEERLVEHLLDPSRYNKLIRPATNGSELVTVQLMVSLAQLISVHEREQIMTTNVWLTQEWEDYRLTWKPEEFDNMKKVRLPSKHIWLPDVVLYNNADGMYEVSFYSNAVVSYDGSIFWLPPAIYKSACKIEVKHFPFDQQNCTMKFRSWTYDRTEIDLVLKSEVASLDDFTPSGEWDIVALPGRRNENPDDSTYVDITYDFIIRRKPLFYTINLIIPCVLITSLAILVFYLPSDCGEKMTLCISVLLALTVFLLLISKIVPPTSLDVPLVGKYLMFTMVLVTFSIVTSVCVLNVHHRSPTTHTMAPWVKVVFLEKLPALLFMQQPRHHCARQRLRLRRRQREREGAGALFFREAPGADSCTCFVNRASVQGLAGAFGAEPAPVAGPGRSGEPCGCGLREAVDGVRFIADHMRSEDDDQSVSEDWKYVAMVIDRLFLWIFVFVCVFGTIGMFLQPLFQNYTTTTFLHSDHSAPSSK
Chain of Neuronal acetylcholine receptor; alpha3/beta2 (P32297 whole entry): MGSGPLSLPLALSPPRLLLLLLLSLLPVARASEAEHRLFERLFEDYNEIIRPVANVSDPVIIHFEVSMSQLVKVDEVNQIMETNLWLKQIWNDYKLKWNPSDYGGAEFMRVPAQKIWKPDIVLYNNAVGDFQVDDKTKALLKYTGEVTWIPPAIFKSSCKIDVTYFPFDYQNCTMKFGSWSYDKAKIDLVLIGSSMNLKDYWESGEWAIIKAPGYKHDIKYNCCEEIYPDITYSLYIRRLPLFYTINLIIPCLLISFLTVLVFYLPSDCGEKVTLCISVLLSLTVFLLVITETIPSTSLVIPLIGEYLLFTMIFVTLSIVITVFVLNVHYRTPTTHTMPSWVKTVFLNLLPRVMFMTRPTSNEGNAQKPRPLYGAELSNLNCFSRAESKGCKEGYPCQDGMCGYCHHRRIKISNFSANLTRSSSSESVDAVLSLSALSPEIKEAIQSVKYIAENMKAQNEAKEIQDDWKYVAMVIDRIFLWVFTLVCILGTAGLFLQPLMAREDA

Macaca mulatta [3] = organism: Macaca mulatta; test: Binding affinity to monkey alpha-6-(non-alpha-4)-beta-2 nAChR
Macaca mulatta [4] = organism: Macaca mulatta; test: Selectivity ratio of monkey alpha-6-alpha-4-beta-2 nAChR over monkey alpha-6-(non-alpha-4)-beta-2 nAChR
[5] = biological target: Neuronal acetylcholine receptor; alpha6/beta2 (Homo sapiens, UniProt P17787+Q15825); test: Inhibition of alpha6beta2 nAChR; format: protein-complex assay
Chain of Neuronal acetylcholine receptor; alpha6/beta2 (P17787 whole entry): as the sequence (P17787 whole entry) above
Chain of Neuronal acetylcholine receptor; alpha6/beta2 (Q15825 whole entry): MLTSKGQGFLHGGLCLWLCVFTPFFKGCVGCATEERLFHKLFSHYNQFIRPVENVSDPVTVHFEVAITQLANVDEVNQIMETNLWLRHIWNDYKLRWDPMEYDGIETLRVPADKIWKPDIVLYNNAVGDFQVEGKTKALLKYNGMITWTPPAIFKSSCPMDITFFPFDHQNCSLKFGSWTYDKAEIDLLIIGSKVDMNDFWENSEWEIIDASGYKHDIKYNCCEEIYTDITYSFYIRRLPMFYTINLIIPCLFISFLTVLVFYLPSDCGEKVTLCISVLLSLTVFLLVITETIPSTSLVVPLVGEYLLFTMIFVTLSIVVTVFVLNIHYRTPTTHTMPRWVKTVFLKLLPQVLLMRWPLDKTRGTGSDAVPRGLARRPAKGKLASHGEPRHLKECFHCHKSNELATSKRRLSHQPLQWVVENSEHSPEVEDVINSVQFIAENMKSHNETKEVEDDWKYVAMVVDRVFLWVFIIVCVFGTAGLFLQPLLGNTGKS

[6] = Selectivity ratio of IC50 for alpha6beta2 nAChR to IC50 for alpha3beta2 nAChR
[7] = Selectivity for alpha3beta2 nAChR over alpha6beta2 nAChR

CC(C)C[C@H](NC(=O)[C@H](Cc1cnc[nH]1)NC(=O)[C@H](CS)NC(=O)[C@@H](NC(=O)[C@@H]1CCCN1C(=O)[C@H](CC(N)=O)NC(=O)[C@H](CO)NC(=O)[C@H](CS)NC(=O)[C@H](CS)NC(=O)CN)C(C)C)C(=O)N[C@@H](C)C(=O)N[C@@H](Cc1cnc[nH]1)C(=O)N[C@@H](CO)C(=O)N[C@@H](CC(N)=O)C(=O)N[C@@H](CC(C)C)C(=O)N[C@@H](CS)C(=O)O (H-GCCSNPVCHLAHSNLC-OH)
Activity (Macaca mulatta [1]): 51 pM | IC50 [2]: 8.72 nM | Activity (Macaca mulatta [3]): 9.7 fM | Selectivity ratio (Macaca mulatta [4]): 5300 | IC50 [5]: 0.16 nM | Ratio IC50 [6]: 54.5

CC[C@H](C)[C@H](NC(=O)[C@H](CCC(N)=O)NC(=O)[C@@H]1CCCN1C(=O)[C@H](CC(N)=O)NC(=O)[C@H](Cc1cnc[nH]1)NC(=O)[C@@H](NC(=O)[C@@H](NC(=O)[C@H](CS)NC(=O)[C@@H](NC(=O)[C@@H]1CCCN1C(=O)[C@H](CC(N)=O)NC(=O)[C@H](CO)NC(=O)[C@H](CS)NC(=O)[C@H](CS)NC(=O)[C@@H]1CCCN1C(=O)[C@H](CC(=O)O)NC(=O)[C@@H](N)CCCNC(=N)N)C(C)C)[C@@H](C)O)C(C)C)C(=O)N[C@@H](CS)C(=O)O (H-RDPCCSNPVCTVHNPQIC-OH)
IC50 [2]: 74.2 nM | Selectivity ratio [7]: 75 | IC50 [5]: 0.95 nM | Ratio IC50 [6]: 78.1

CC[C@H](C)[C@H](NC(=O)[C@H](Cc1cnc[nH]1)NC(=O)[C@H](CCC(N)=O)NC(=O)[C@H](CC(N)=O)NC(=O)[C@H](CC(N)=O)NC(=O)CNC(=O)[C@H](C)NC(=O)[C@H](CS)NC(=O)[C@H](C)NC(=O)[C@@H]1CCCN1C(=O)[C@H](Cc1cnc[nH]1)NC(=O)[C@H](CO)NC(=O)[C@H](CS)NC(=O)[C@H](CS)NC(=O)CN)C(=O)N[C@@H](CS)C(=O)O
IC50 [2]: 1.1 nM | IC50 [5]: 3 nM | Ratio IC50 [6]: 0.4

CC(C)C[C@H](NC(=O)[C@H](CC(N)=O)NC(=O)[C@H](CO)NC(=O)[C@H](Cc1cnc[nH]1)NC(=O)[C@H](CCC(=O)O)NC(=O)[C@H](CC(C)C)NC(=O)[C@H](Cc1cnc[nH]1)NC(=O)[C@H](CS)NC(=O)[C@@H](NC(=O)[C@@H]1CCCN1C(=O)[C@H](CC(N)=O)NC(=O)[C@H](CO)NC(=O)[C@H](CS)NC(=O)[C@H](CS)NC(=O)CN)C(C)C)C(=O)N[C@@H](CS)C(=O)O
IC50 [2]: 0.5 nM | IC50 [5]: 0.39 nM
